Measured values taken from BindingDB's records for doi:10.1016/j.bioorg.2015.06.004 (University of Karachi, 2015).

Each compound was assayed against Urease [D459Y,K653P] (Canavalia ensiformis, UniProt P07374, D459Y/K653P) (assay: Urease Inhibition Assay). Conditions: pH 8.2.
Procedure: The mixture of this enzyme inhibition assay was composed of 10 µL of enzyme (5 U/mL) and 10 µL of each test compound in the series (3a-3s) in 40 µL buffer (100 mM urea, 0.01 M K2HPO4, 1 mM EDTA and 0.01 M […], pH 8.2). The resulting mixture in for each test compound was incubated for 30 min at 37 °C in 96-well plates. Subsequently, the phenol reagents (40 µL) (1%, w/v phenol and 0.005%, w/v sodium nitroprusside) and alkali reagent (40 µL) (0.5%, w/v NaOH and 0.1% active chloride NaOCl) were dropped down into each well. The absorbance of the colored resultant mixtures was measured after 30 min at 625 nm.

Chain of Urease [D459Y,K653P] (P07374 whole entry D459Y/K653P): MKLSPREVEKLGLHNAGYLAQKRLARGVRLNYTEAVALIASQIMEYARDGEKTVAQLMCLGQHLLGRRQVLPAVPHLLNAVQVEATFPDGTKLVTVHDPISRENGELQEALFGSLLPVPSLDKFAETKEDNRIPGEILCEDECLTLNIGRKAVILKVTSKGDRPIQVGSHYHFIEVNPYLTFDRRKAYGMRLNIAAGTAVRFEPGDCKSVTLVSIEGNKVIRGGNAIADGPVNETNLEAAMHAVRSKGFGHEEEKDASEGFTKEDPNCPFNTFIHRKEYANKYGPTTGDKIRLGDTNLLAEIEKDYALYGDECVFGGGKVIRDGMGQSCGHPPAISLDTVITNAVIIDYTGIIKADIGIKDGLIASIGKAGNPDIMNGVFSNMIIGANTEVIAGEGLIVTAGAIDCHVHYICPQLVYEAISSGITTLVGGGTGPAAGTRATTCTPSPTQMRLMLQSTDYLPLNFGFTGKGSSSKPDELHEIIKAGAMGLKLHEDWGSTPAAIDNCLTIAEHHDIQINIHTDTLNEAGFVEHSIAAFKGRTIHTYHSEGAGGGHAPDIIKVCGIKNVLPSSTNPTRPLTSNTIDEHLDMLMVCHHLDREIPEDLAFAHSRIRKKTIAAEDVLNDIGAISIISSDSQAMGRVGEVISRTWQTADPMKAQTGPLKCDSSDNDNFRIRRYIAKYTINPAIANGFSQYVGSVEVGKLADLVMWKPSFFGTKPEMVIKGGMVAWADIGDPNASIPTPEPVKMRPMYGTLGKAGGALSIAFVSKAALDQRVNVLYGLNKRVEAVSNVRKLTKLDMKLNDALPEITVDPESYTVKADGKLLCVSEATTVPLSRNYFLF

`CC(=NNC(=S)Nc1ccccc1C)c1cc2ccccc2o1` [2-(1-(Benzofuran-2-yl)ethylidene)-N-(2-methylphenyl)hydrazinecarbothioamide (3p)] and `CC(=NNC(=S)Nc1ccccc1F)c1cc2ccccc2o1` [2-(1-(Benzofuran-2-yl)ethylidene)-N-(2-fluorophenyl)hydrazinecarbothioamide (3g)] are within 1.5-fold of each other in IC50: 314 nM for the first, 321 nM for the second.

First: CC(=NNC(=S)Nc1cccc([N+](=O)[O-])c1)c1cc2ccccc2o1 [2-(1-(Benzofuran-2-yl)ethylidene)-N-(3-nitrophenyl)hydrazinecarbothioamide (3k)]
Second: CC(=NNC(=S)Nc1ccc([N+](=O)[O-])cc1)c1cc2ccccc2o1 [2-(1-(Benzofuran-2-yl)ethylidene)-N-(4-nitrophenyl)hydrazinecarbothioamide (3l)]
The IC50 of the first is 2.4-fold lower: 77 nM for the first, 181 nM for the second.

Compared with `CC(=NNC(=S)Nc1ccc(Cl)cc1Cl)c1cc2ccccc2o1` [2-(1-(Benzofuran-2-yl)ethylidene)-N-(2,4-dichlorophenyl)-hydrazinecarbothioamide (3c)], `CC(=NNC(=S)Nc1cc(Cl)ccc1Cl)c1cc2ccccc2o1` [2-(1-(Benzofuran-2-yl)ethylidene)-N-(2,5-dichlorophenyl)-hydrazinecarbothioamide (3d)] is 3.4-fold higher in IC50: 592 nM for the first, 2010 nM for the second.

Compared with `COc1ccccc1NC(=S)NN=C(C)c1cc2ccccc2o1` [2-(1-(Benzofuran-2-yl)ethylidene)-N-(2-methoxyphenyl)hydrazinecarbothioamide (3o)], `CC(=NNC(=S)Nc1ccccc1Br)c1cc2ccccc2o1` [2-(1-(Benzofuran-2-yl)ethylidene)-N-(2-bromophenyl)hydrazinecarbothioamide (3j)] is 43-fold lower in IC50: 24000 nM for the first, 564 nM for the second.

Compared with `CC(=NNC(=S)Nc1cccc(Cl)c1)c1cc2ccccc2o1` [2-(1-(Benzofuran-2-yl)ethylidene)-N-(3-chlorophenyl)hydrazinecarbothioamide (3b)], `CC(=NNC(=S)Nc1cccc(C)c1)c1cc2ccccc2o1` [1-[1-(2-benzofuranyl)ethylideneamino]-3-(3-methylphenyl)thiourea] is 4-fold lower in IC50: 1130 nM for the first, 283 nM for the second. The second is the more potent here.

Compared with `C=CCNC(=S)NN=C(C)c1cc2ccccc2o1` [N-Allyl-2-(1-(benzofuran-2-yl)ethylidene)hydrazinecarbothioamide (3s)], `CC(=NNC(=S)Nc1ccccc1)c1cc2ccccc2o1` [2-(1-(Benzofuran-2-yl)ethylidene)-N-phenylhydrazinecarbothioamide (3a)] is 7.8-fold lower in IC50: 694 nM for the first, 89 nM for the second. The second is the more potent here.

Going from `CC(=NNC(=S)Nc1ccc(C)cc1)c1cc2ccccc2o1` [SMR000377934] to `CC(=NNC(=S)Nc1ccc(F)cc1)c1cc2ccccc2o1` [2-(1-(Benzofuran-2-yl)ethylidene)-N-(4-fluorophenyl)hydrazinecarbothioamide (3e)], the IC50 falls from 3470 nM to 177 nM (20-fold).

Going from `COc1cccc(NC(=S)NN=C(C)c2cc3ccccc3o2)c1` [2-(1-(Benzofuran-2-yl)ethylidene)-N-(3-methoxyphenyl)hydrazinecarbothioamide (3n)] to `CC(=NNC(=S)Nc1cccc(Br)c1)c1cc2ccccc2o1` [2-(1-(Benzofuran-2-yl)ethylidene)-N-(3-bromophenyl)hydrazinecarbothioamide (3i)], the IC50 rises from 102 nM to 10900 nM (110-fold). The first is the more potent here.

Compared with `CC(=NNC(=S)Nc1ccc(F)cc1F)c1cc2ccccc2o1` [2-(1-(Benzofuran-2-yl)ethylidene)-N-(2,4-difluorophenyl)hydrazinecarbothioamide (3h)], `CC(=NNC(=S)Nc1cccc(F)c1)c1cc2ccccc2o1` [2-(1-(Benzofuran-2-yl)ethylidene)-N-(3-fluorophenyl)hydrazinecarbothioamide (3f)] is 3-fold higher in IC50: 387 nM for the first, 1150 nM for the second.

With `COc1ccc(NC(=S)NN=C(C)c2cc3ccccc3o2)cc1` [2-(1-(Benzofuran-2-yl)ethylidene)-N-(4-methoxyphenyl)hydrazinecarbothioamide (3m)] the IC50 was 2610 nM.
